Data as given in patent publication US7994326B2 (Northwestern University, priority 2003, dated 2011).
pIC50, pKi: −log10 of the molar value.

Tests used:
Type in all cases: biochemical
rat nNOS = target: T1, rat nNOS (Rattus norvegicus, UniProt P29476); test: NOS enzyme inhibitory assay (hemoglobin capture), nNOS; settings: Table 1a; for Selectivity n/e: Ki(eNOS)/Ki(nNOS); for Selectivity n/i: Ki(iNOS)/Ki(nNOS); for pKi: apparent Ki calculated from IC50, Km […], read-out: calc. Ki nNOS; for pIC50: rat nNOS, 10 μM L-arginine
T1 construct: made in house; host or cells: E. coli (plasmid pCWnNOS)
How it was run: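 Recombinant rat nNOS expressed in E. coli and purified by calmodulin-Sepharose and 2′,5′-ADP-Sepharose chromatography. NO production followed by hemoglobin capture; inhibition expressed as Ki, selectivity as ratio of Ki values.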

murine iNOS = target: T2, murine iNOS (Mus musculus, UniProt P29477); test: NOS enzyme inhibitory assay (hemoglobin capture), iNOS; settings: Table 1a; for pKi: apparent Ki calculated from IC50, Km […], read-out: calc. Ki iNOS; for pIC50: murine iNOS, 10 μM L-arginine
T2 construct: made in house; host or cells: E. coli (plasmid pCWiNOS)
How it was run: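 Recombinant murine iNOS, overexpressed in E. coli from plasmid pCWiNOS (induced with 1 mM IPTG) and purified on a 2′,5′-ADP-Sepharose 4B column with elution by 10 mM 2′(3′)-AMP, 10 μM BH4 and 0.3 M NaCl, was used to test inhibitors. Nitric oxide production was followed with the hemoglobin capture assay, and IC50 values were determined.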

bovine eNOS = target: T3, bovine eNOS (Bos taurus, UniProt P29473); test: NOS enzyme inhibitory assay (hemoglobin capture), eNOS; settings: Table 1a; for pKi: apparent Ki calculated from IC50, Km 1.7 μM, read-out: calc. Ki eNOS; for pIC50: bovine eNOS, 10 μM L-arginine, * = no inhibition observed up to the concentration listed
T3 construct: made in house; host or cells: E. coli (plasmid Bov-eNOSpCW)

SMILES: Nc1cccc(CC2CNCC2NC2CCN(Cc3ccccc3)C2)n1 (centres unmarked) [Compound P-36]
- Selectivity n/e (rat nNOS): 32.20
- Selectivity n/i (rat nNOS): 66.39
- pKi (rat nNOS): 5.48
- pIC50 (rat nNOS): 4.54
- pKi (murine iNOS): 3.65
- pIC50 (murine iNOS): 3.31
- pKi (bovine eNOS): 3.97
- pIC50 (bovine eNOS): 3.13

SMILES: Nc1cccc(CC2CNCC2NC2CCN(Cc3ccccc3)C2)n1 (centres unmarked) [Compound P-37]
- Selectivity n/e (rat nNOS): 2.42
- Selectivity n/i (rat nNOS): 3.05
- pKi (rat nNOS): 4.12
- pIC50 (rat nNOS): 3.18
- pKi (murine iNOS): 3.64
- pIC50 (murine iNOS): 3.30
- pKi (bovine eNOS): 3.74
- pIC50 (bovine eNOS): 2.90

SMILES: Nc1cccc(CC2CNCC2NC2CCN(Cc3ccccc3)C2)n1 (centres unmarked) [Compound P-38]
- Selectivity n/e (rat nNOS): 66.19
- Selectivity n/i (rat nNOS): 155.05
- pKi (rat nNOS): 5.56
- pIC50 (rat nNOS): 4.62
- pKi (murine iNOS): 3.37
- pIC50 (murine iNOS): 3.03
- pKi (bovine eNOS): 3.74
- pIC50 (bovine eNOS): 2.90

SMILES: Nc1cccc(CC2CNCC2NC2CCN(Cc3ccccc3)C2)n1 (centres unmarked) [Compound P-39]
- Selectivity n/e (rat nNOS): 4.10
- Selectivity n/i (rat nNOS): 14.38
- pKi (rat nNOS): 4.65
- pIC50 (rat nNOS): 3.71
- pKi (murine iNOS): 3.49
- pIC50 (murine iNOS): 3.14
- pKi (bovine eNOS): 4.03
- pIC50 (bovine eNOS): 3.19
